Data as given in patent US8378085B2, “Bacterial ATP synthase binding domain” (priority 2004, dated 2013).

System: DARQ J mutant M. tuberculosis
Type: cell-based, Mycobacterium tuberculosis

Q: How did the “effect on ATP production (total cellular ATP)” value turn out when `COc1nc2ccc(Br)cc2cc1[C@@H](c1ccccc1)[C@@](O)(CCN(C)C)c1cccc2ccccc12` [J] was run?
A: did not show any decrease

Q: Which “effect on ATP production (total cellular ATP)” value does the source give for `C(=NC1CCCCC1)=NC1CCCCC1` [DCCD, reference compound] here?
A: able to block the ATP production

System: M. tuberculosis strains resistant to J
Type: cell-based, Mycobacterium tuberculosis

Q: For `CC[C@@H](CO)NCCN[C@@H](CC)CO` [ethambutol], which “sensitivity of M. tuberculosis strains resistant to J to the anti-TB agent” value (“sensitivity” below) is on record?
A: unchanged

Q: With `NCC[C@H](O)C(=O)N[C@@H]1C[C@H](N)[C@@H](O[C@H]2O[C@H](CN)[C@@H](O)[C@H](O)[C@H]2O)[C@H](O)[C@H]1O[C@H]1O[C@H](CO)[C@@H](O)[C@H](N)[C@H]1O` [amikacin] as the molecule, how does the “sensitivity” value read?
A: unchanged

Q: For `[H]/N=C(/N)N[C@H]1[C@H](O)[C@@H](O)[C@H](O[C@@H]2O[C@@H](C)[C@](O)(C=O)[C@H]2O[C@@H]2O[C@@H](CO)[C@H](O)[C@@H](O)[C@@H]2NC)[C@@H](N/C(N)=N\[H])[C@@H]1O` [streptomycin], which “sensitivity” value is on record?
A: unchanged

Q: How did the “sensitivity” value turn out when `CO[C@H]1/C=C/O[C@@]2(C)Oc3c(C)c(O)c4c(O)c(c(/C=N/N5CCN(C)CC5)c(O)c4c3C2=O)NC(=O)/C(C)=C\C=C\[C@H](C)[C@H](O)[C@@H](C)[C@@H](O)[C@@H](C)[C@H](OC(C)=O)[C@@H]1C` [rifampin] was run?
A: unchanged

Q: With `NNC(=O)c1ccncc1` [isoniazid] as the molecule, how does the “sensitivity” value read?
A: unchanged
